From paper PMC6332448, “SAR Studies Leading to the Identification of a Novel Series of Metallo-β-lactamase Inhibitors for the Treatment of Carbapenem-Resistant Enterobacteriaceae Infections That Display Efficacy in an Animal Infection Model” (ACS Infectious Diseases, 2018)
In brackets after ≈: the same amount, converted by molar mass. Several values for one entry are separate records, joined by “and”; a condition that tells them apart may be missing. Equal entries are not always repeated. Where two headings read alike, the source gives them in different places.

Key:
[1] = tested on: NDM-1-producing Escherichia coli (DH5α/pLBII-NDM-1); experiment: Imipenem MIC on laboratory strain; type: cell-based; settings: tested at concentrations up to 1 mM; data not shown
[2] = target: Aeromonas hydrophila CphA MBL; set-up: method as in PMID 17307979; settings: read-out: Ki [inhibition constant] CphA; cited from earlier work
VIM-2 [3] = target: T1, VIM-2 (Escherichia coli, UniProt Q5U7L7); experiment: biochemical
NDM-1 = NDM-1 (Klebsiella pneumoniae, UniProt C7C422); experiment: biochemical; type: biochemical; settings: for IC50: 10 mM HEPES pH 7.5, 25 °C, average of at least two independent assays; for inhibition of NDM-1, in words: tested up to 200 μM
Chain of NDM-1 (C7C422 29-270, looked up, species assumed): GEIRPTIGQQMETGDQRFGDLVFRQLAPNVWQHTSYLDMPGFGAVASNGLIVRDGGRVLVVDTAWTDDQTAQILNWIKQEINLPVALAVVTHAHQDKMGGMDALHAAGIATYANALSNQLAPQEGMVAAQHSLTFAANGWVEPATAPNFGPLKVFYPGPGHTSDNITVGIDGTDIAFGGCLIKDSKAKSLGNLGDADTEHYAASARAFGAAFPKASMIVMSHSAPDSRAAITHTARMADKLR

VIM-1 = VIM-1 (Pseudomonas aeruginosa, UniProt A0A0F7KYQ8); experiment: biochemical; type: biochemical; settings: for inhibition of VIM-1, in words: tested up to 200 μM
IMP-1 = IMP-1 (Serratia marcescens, UniProt P52699); experiment: biochemical; type: biochemical; settings: for inhibition of IMP-1, in words: tested up to 200 μM
Chain of IMP-1 (P52699 19-246, looked up, species assumed): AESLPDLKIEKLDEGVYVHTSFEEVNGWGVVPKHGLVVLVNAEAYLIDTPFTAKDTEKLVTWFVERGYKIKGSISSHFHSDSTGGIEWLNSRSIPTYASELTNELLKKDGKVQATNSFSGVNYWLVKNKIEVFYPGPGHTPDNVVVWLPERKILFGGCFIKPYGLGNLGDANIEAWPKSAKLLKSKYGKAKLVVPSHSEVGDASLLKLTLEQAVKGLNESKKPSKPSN

VIM-2 [4] = target: T1, VIM-2; settings: tested up to 200 μM
[5] = tested on: IMP-1-producing strain K. pneumoniae NTBC062; experiment: Whole-cell meropenem potentiation, CLSI broth microdilution MIC; type: cell-based, Klebsiella pneumoniae; settings: inhibitor present at 100 μM; K. pneumoniae NTBC062 (IMP-1); meropenem alone 4 μg/mL
Protocol: (§1) Minimal inhibitory concentrations (MIC) were determined using the Clinical Laboratory Standards Institute (CLSI) broth microdilution procedure. MBL-positive Enterobacteriaceae clinical isolates tested in the susceptibility study included NDM-1-producing strain E. coli NTBC121, VIM-1-producing strain K. pneumoniae NTBC055, and IMP-1-producing strain K. pneumoniae NTBC062. (Individual MICs for all strains tested are presented in Table 2 and Table 1 in the Supporting Information).

[6] = tested on: VIM-1-producing strain Klebsiella pneumoniae NTBC055; experiment: as above; type: cell-based; settings: inhibitor present at 100 μM; K. pneumoniae NTBC055 (VIM-1); meropenem alone 16 μg/mL
Protocol: as §1

[7] = tested on: NDM-1-producing strain Escherichia coli NTBC121; experiment: as above; type: cell-based; settings: for MICMEM (meropenem MIC in presence of inhibitor) vs NTBC121: inhibitor present at 100 μM, E. coli NTBC121 (NDM-1), meropenem alone 32 μg/mL; for potentiation efficiency (PE = MIC/IC50): potentiated meropenem MIC vs E. coli NTBC121 divided by NDM-1 IC50
Protocol: as §1

[8] = Kinetic solubility in PBS pH 7.4; type: physicochemical; settings: for solubility at 4 h: phosphate-buffered saline, pH 7.4, aqueous buffer, thermodynamic from solid
Protocol: This was determined by vigorous stirring (1200 rpm) of a 20 mg/mL mixture of the test compound in phosphate-buffered saline (PBS) at pH 7.4 for 4 h. The mixture was then centrifuged for 20 min at 10 000 rpm and the supernatant further processed by filtration. The concentration of the test compound in the filtrate was then determined by high-performance liquid chromatography (UV analysis) by comparison to a standard calibration curve of the test compound.

E. coli (IR3) = tested on: E. coli (IR3); set-up: method as in PMID 29530861; settings: E. coli (IR3) murine thigh infection model, in combination with meropenem; cited from earlier work
[9] = tested on: NDM- and VIM-producing clinical strains; set-up: method as in PMID 29530861; settings: cited from earlier work
[10] = 300 μM imipenem, read-out: NDM-1 IC50
[11] = 300 μM imipenem, 10 mM HEPES pH 7.5, 25 °C, average of at least two independent assays, read-out: VIM-1 IC50
[12] = 300 μM imipenem, 10 mM HEPES pH 7.5, 25 °C, average of at least two independent assays, read-out: IMP-1 IC50
[13] = acid form, read-out: solubility
[14] = sodium salt, read-out: solubility (Na salt)

Row | SMILES | IC50 (VIM-2 [3]) | IC50 (NDM-1; NDM-1 IC50, 300 μM imipenem) | IC50 (VIM-1) | IC50 (IMP-1) | MICMEM (meropenem MIC in presence of inhibitor) vs NTBC062 [5] | MICMEM (meropenem MIC in presence of inhibitor) vs NTBC055 [6] | MICMEM (meropenem MIC in presence of inhibitor) vs NTBC121 [7] | other results
1 | O=C(O)c1ccccn1 [Compound 1, pyridine-2-carboxylic acid, reference compound] | > 200 µM | 17.1 µM | > 200 µM | > 200 µM |  |  |  | reduction of imipenem MIC [1]: no reduction; Ki [2]: 6 µM; inhibition of VIM-1, in words (VIM-1): no significant activity; inhibition of IMP-1, in words (IMP-1): no significant activity
2 | Cc1ccc(C(=O)Nc2cccnc2C(=O)O)cc1Cl [Compound 17] | 93 µM | 8.46 µM and 8.5 µM | 95.7 µM | 87.6 µM |  |  |  | inhibition of NDM-1, in words (NDM-1): low micromolar inhibition; inhibition of VIM-1, in words (VIM-1): detectable inhibition; inhibition of VIM-2, in words (VIM-2 [4]): detectable inhibition; inhibition of IMP-1, in words (IMP-1): detectable inhibition
3 | O=C(Nc1cccnc1C(=O)O)c1cocn1 [Compound 18] | > 200 µM | > 200 µM | > 200 µM | > 200 µM |  |  |  | inhibition of NDM-1, in words (NDM-1): inactive; inhibition of VIM-1, in words (VIM-1): inactive; inhibition of VIM-2, in words (VIM-2 [4]): inactive; inhibition of IMP-1, in words (IMP-1): inactive
4 | O=C(O)c1ncccc1NS(=O)(=O)c1ccccc1 [Compound 32] | 1.9 µM | 49.9 µM | > 200 µM | > 200 µM | 2 µg/mL | 4 µg/mL | 16 µg/mL | inhibition of VIM-2, in words (VIM-2 [4]): strong inhibition
5 | O=C(O)c1ncccc1NS(=O)(=O)Cc1ccccc1Cl [Compound 39] |  |  |  |  | 1 µg/mL | 0.5 µg/mL | 16 µg/mL | IC50 (NDM-1; [10]): 32.6 µM; IC50 (VIM-1; [11]): 10.9 µM; IC50 (IMP-1; [12]): 20.9 µM
6 | O=C(O)c1ncccc1NS(=O)(=O)Cc1cccc(C(F)(F)F)c1 [Compound 40] |  |  |  |  | 1 µg/mL | 2 µg/mL | 16 µg/mL | IC50 (NDM-1; [10]): 17.9 µM; IC50 (VIM-1; [11]): 71.6 µM; IC50 (IMP-1; [12]): > 200 µM
7 | O=C(O)c1ncccc1NS(=O)(=O)Cc1ccc(Cl)cc1Cl [Compound 41] |  |  |  |  | 1 µg/mL | 1 µg/mL | 16 µg/mL | IC50 (NDM-1; [10]): 80.6 µM; IC50 (VIM-1; [11]): 17.5 µM; IC50 (IMP-1; [12]): 74.3 µM
8 | O=C(O)c1ncccc1NS(=O)(=O)Cc1cc(Cl)cc(Cl)c1 [Compound 43] | 0.3 µM | 18.6 µM | 57.2 µM | 180 µM | 1 µg/mL | 1 µg/mL | 8 µg/mL | inhibition of VIM-2, in words (VIM-2 [4]): strong inhibition
9 | O=C(O)c1ncccc1NS(=O)(=O)c1ccccc1 [Compound 61] |  |  |  |  | 4 µg/mL | 4 µg/mL | 16 µg/mL | IC50 (NDM-1; read-out: NDM-1 IC50, 300 μM imipenem): 49.9 µM; IC50 (VIM-1; read-out: VIM-1 IC50, 300 μM imipenem, 10 mM HEPES pH 7.5, 25 °C, average of at least two independent assays): > 200 µM; IC50 (IMP-1; read-out: IMP-1 IC50, 300 μM imipenem, 10 mM HEPES pH 7.5, 25 °C, average of at least two independent assays): > 200 µM; potentiation efficiency (PE = MIC/IC50) [7]: 0.32
10 | O=C(O)c1ncsc1NS(=O)(=O)c1ccccc1 [Compound 62] | 6.2 µM | 4.5 µM | > 200 µM | 58.2 µM | 1 µg/mL | 0.5 µg/mL | 0.125 µg/mL | solubility at 4 h [8, 13]: 1.1 mg/mL (≈ 3.87 mM); solubility at 4 h [8, 14]: 18.9 mg/mL; improvement in potentiation over that expected from enzyme inhibition alone ([7]; 62 (thiazolyl) versus 61 (pyridyl), from PE values): 10 fold; potentiation efficiency (PE = MIC/IC50) [7]: 0.027
11 | O=C(O)c1ncccc1NS(=O)(=O)Cc1ccccc1 [Compound 63] |  | > 100 µM | > 100 µM | > 100 µM | 1 µg/mL | 1 µg/mL | 16 µg/mL | 
12 | O=C(O)c1ncsc1NS(=O)(=O)Cc1ccccc1 [Compound 64] |  | 2.53 µM | 62.7 µM | 1.83 µM | 0.5 µg/mL | 0.5 µg/mL | 0.5 µg/mL | 
13 | N#Cc1cccc(CS(=O)(=O)Nc2cccnc2C(=O)O)c1 [Compound 65] |  | 116 µM | > 200 µM | 150 µM | 1 µg/mL | 2 µg/mL | 32 µg/mL | 
14 | N#Cc1cccc(CS(=O)(=O)Nc2scnc2C(=O)O)c1 [Compound 66] |  | 8.82 µM | 54.2 µM | 2.51 µM | 1 µg/mL | 0.5 µg/mL | 2 µg/mL | 
15 | O=C(O)c1ncsc1NS(=O)(=O)Cc1ccccc1Cl [Compound 68] |  | 2.32 µM | 6.72 µM | 1.75 µM | 0.5 µg/mL | 0.25 µg/mL | 0.5 µg/mL | 
16 | O=C(O)c1ncsc1NS(=O)(=O)Cc1ccc(Cl)c(Cl)c1 [Compound 70] |  | 7.88 µM | 37.9 µM | 3.55 µM | 1 µg/mL | 1 µg/mL | 2 µg/mL | 
17 | O=C(O)c1ncsc1NS(=O)(=O)Cc1ccc(Cl)cc1Cl [Compound 72] |  | 2.1 µM | 7 µM | 0.5 µM | 0.5 µg/mL | 0.5 µg/mL | 0.5 µg/mL | 
18 | O=C(O)c1ncsc1NS(=O)(=O)Cc1cc(Cl)cc(Cl)c1 [Compound 74] |  | 6.9 µM | 28 µM | 3.2 µM | 1 µg/mL | 0.5 µg/mL | 2 µg/mL | 
19 | O=C(O)c1ncsc1NS(=O)(=O)c1cccnc1 [Compound 76, 5-(Pyridine-3-sulfonamido)-1,3-thiazole-4-carboxylic acid] |  | 2.67 µM |  | 54 µM |  |  | 0.06 µg/mL | solubility at 4 h [8, 13]: 2.4 mg/mL (≈ 8.41 mM); solubility at 4 h [8, 14]: ~20 mg/mL; solubility (Na salt) ([8]; sodium salt): 16.9 mg/mL; efficacy with meropenem in thigh infection model, in words (E. coli (IR3)): restore the efficacy of meropenem; effective inhibitor concentration for potentiation of meropenem ([9]; listed as ANT431): 28 μM and 8 μg/mL; potentiation of meropenem activity, in words ([9]; panel of 94 randomly selected NDM- and VIM-producing clinical strains): potentiate meropenem activity
